Data from patent US5627156A, “Polypeptide agonists for human interleukin-8” (University of Nebraska Board of Regents, priority 1994, dated 1997).
Where no end group is shown, it is not given here.

Columns and labels:
[1] = Biological activity of the analog compared to analog 1 (test not specified); conditions: C-terminally truncated, residues 4 to 17
Procedure: The biological activity of an analog of the invention is determined by comparing the analog with naturally occurring IL-8.

[2] = tested on: receptor sites on neutrophils; conditions: cited from earlier work
[3] = tested on: Polymorphonuclear leukocytes (PMNs); assay: Neutrophil Ca release by flow cytometry (Fluo-3); format: cell-based, human
Procedure: Polymorphonuclear leukocytes (≥95% neutrophils, PMNs) were isolated from heparinized (10 U/ml) blood collected from healthy volunteers. Erythrocytes were removed by 6% dextran sedimentation for 30 minutes at room temperature, and then the supernatant was subjected to Ficoll (Ficoll-Paque, Pharmacia LKB, Uppsala, Sweden) density gradient centrifugation. PMNs were obtained from the pellet. Contaminated erythrocytes were eliminated by one cycle of hypotonic lysis. After an additional washing step the cells were counted and adjusted to a final concentration of 5×10^6 /ml in RPMI 1640 (Gibco, Grand Island, N.Y.). Fluo-3 Loading--The loading procedure with Fluo-3 (Molecular Probes, Eugene, Oreg.) was carried out with PMNs suspended at a density of 5×10^6 /ml in fresh RPMI 1640 containing 2.0 μM Fluo-3 AM (prediluted in dimethyl sulfoxide; Sigma Chemicals) in polypropylene tubes (Falcon 2063, Becton Dickinson). […]
Measurement of [Ca^2+ ] in Flow Cytometry--Before addition of the stimuli the fluorescence channel of the FAGScan Plus (Becton Dickinson) was adjusted to find the basal fluorescence level of loaded but unstimulated PMNs. The samples were excited by an argon laser at 488 nm and emission was measured at 525 nm (green fluorescence, channel FL1). […] The fluorescence of Fluo-3-loadedcells was measured in arbitrary fluorescence units of mean channel fluorescence (channel FL1). […]

[4] = tested on: peripheral blood cells (PMNs, monocytes, lymphocytes); assay: In vivo peripheral blood (PBL) cellularity after ip injection; set-up: species or system C57BL/6 mice; conditions: single ip injection
Procedure: (§1) A stock solution of 5 mg/ml of Analog 1 was prepared using Dulbecco's phosphate buffered saline D-PBS. The solution was made 5× to compensate for the injection of 0.2 ml ip. The mice were dosed at various times with various doses of analog 1. The ip administration was with a volume of 0.2 ml. In addition, excipient control animals were injected.
(§2) The mice used for the study were C57BL/6 females, which were obtained from Jackson Laboratories. The mice used in these studies were at 8-10 weeks of age and weighed 15-18 g. The mice were housed in conventional cages, fed pelleted food and given water ad libitum.
At various times following injection of Analog 1 the mice were bled from retinal orbital plexus with 40 μl removed into heparanized capillary tubes and the blood analyzed using a Serona Baker 9000 Blood analyzer. In addition, blood films were made and differentials undertaken on at least 200 cells/sample.

[5] = tested on: peritoneal cells (PMNs, monocytes/macrophages, lymphocytes); assay: In vivo chemotactic activity into the peritoneum after ip injection; set-up: species or system C57BL/6 mice
Procedure: as §1, §2
The mice were sacrificed by ether overdose, the ventral skin reflected and the peritoneum lavaged with three 5 ml lavages of calcium-, magnesium-freeHBSS. At one, two, four, eight and 24 hours, following injection, three to five mice and/or control mice were lavaged and the cells collected in 15 ml tubes. The peritoneal cells were then centrifuged and counted. In addition, a differential was done on the peritoneal cells in a cytospin preparation. For the cytospin, 25 μl of bovine albumin (Sigma Lot #70H0183) was first placed in the bottom of the chamber, and 100 μl of cell suspension (100,000 cells) added. It was spun at 1000 rpm for 5 minutes and then left to dry. Next, they were placed in leukostat fixative solution for 5 seconds followed by 45 seconds in Leukostat solution 1 and 45 seconds in Leukostat solution 2 and finally washed in deionized H2 O for 5 seconds and allowed to dry. The slides were analyzed under microscope for differentials.

For “Glu-Leu-Arp-Cys-Gln-Cys-Ile-Lys-Thr-Tyr-Ser-Lys-Pro-Phe (ELRCQCIKTYSKPF) [Analog 2, structural mimic of human IL-8 from amino acid residues 4 to 17]”, the “activity compared to analog 1” value [1] was “slight loss of activity”.

For Interleukin 8 [IL-8], the Kd [2] is given as 0.2 nM and the “neutrophil Ca concentration” value ([3]; 77 amino acid IL-8 at 10^-6 M, FIG. 8B) is given as “the majority of neutrophils showed an increase in calcium concentration”.

With “ELRCQCIKTYSKPFHPK (cysteine pairing not given here) [Analog 1, structural mimic of IL-8 from amino acid residues 4 to 20]” the PBL cellularity ([4]; FIG. 2) was “significant increase”, the “frequency of PMNs in the peripheral blood” value ([4]; FIG. 5) was “increase” and the “absolute number of PMNs and monocytes in the peripheral blood” value ([4]; FIG. 6) was “significant increase”. For the same substance, the “neutrophil Ca concentration” value ([3]; FIG. 10A and B, concentration not given) was “induced a change in neutrophil Ca concentrations”, the “kinetics of the in vivo chemotactic response in the peritoneum” value ([5]; ip injection of 10 μg, FIG. 7) was “greatest increase observed was in the number of macrophages and PMNs” and the “primary cell type elicited in the peritoneum” value ([5]; ip injection, FIG. 3) was “PMNs”. The “increase in PMN into the peritoneum” value ([5]; ip injection, FIG. 4) was “four-fold”, the “increase in monocyte/macrophages into the peritoneum” value ([5]; ip injection, FIG. 4) was “two-fold” and the “dose of optimal activity on peritoneal cellularity” value ([5]; single ip injection, 0.1-500 μg/animal, FIG. 1) was 10 μg/animal.
